In patent US8772274B1, “Anti-cancer compositions and methods” (The Penn State Research Foundation, priority 2008, dated 2014):
Counter-ions that a name gives are not always drawn. Like-named read-outs stand apart in the source and are kept apart here.

What was measured:
[1] = test system: 1205Lu melanoma cell line; assay: MTS cell viability assay, 1205Lu; assay type: cell-based; conditions: Homo sapiens; 1205Lu melanoma; 24 hours treatment; MTS; read-out: IC50, 1205Lu (Table I)
Method: Cellular viability compared to control treated cells is measured using the MTS assay (Promega, Madison, Wis.).

[2] = test system: MDA-MB-231 breast adenocarcinoma cells; assay: MTS cell viability assay, MDA-MB-231; assay type: cell-based, human
Method: (§1) Growth inhibitory effects on cultured cells from human vertical growth phase (VGP) melanoma cell line WM115, Lung adenocarcinoma (A549), fibrosarcoma (HT-1080), prostate adenocarcinoma (PC-3), ovarian carcinoma (OVCAR-3), and breast adenocarcinoma (MDA-MB-231) are plated in 96 well plates at a density of 5×10^3 cells/well in 100 μl media. […] Dose response curves for each compound are generated and the IC50 values (μM) determined using GraphPad Prism software. Each experiment is replicated at least 3 times and the average IC50 (μM) values with standard error represented.

[3] = test system: normal human fibroblast FF2441 and UACC 903 cells; assay: Sensitivity of melanoma cells compared to normal cells; assay type: cell-based; conditions: FF2441 vs UACC 903; 2, 4, 6, 12 and 24 hours
Description: Sensitivity of melanoma cells to PBISe is compared to normal cells. […] Thus, cultured cancer cells are 2-5 fold more sensitive to PBISe than normal cells.

[4] = test system: HCT-116 colorectal adenocarcinoma cells; assay: MTS cell viability assay, HCT-116; assay type: cell-based; conditions: Homo sapiens; HCT-116; 24-72 hours; MTS; read-out: Inhibition of growth IC50, HCT-116 (Table II)
[5] = Toxicity of topical application in vivo
Method: Blood collected from the control and experimental animals, at the end of treatment (day 29), are analyzed for SGOT, SGPT (representing liver and cardiac toxicity) and alkaline phosphatase (for kidney and cardiac toxicity). Additionally, concentrations of metabolites (glucose, creatinine, urea nitrogen and total protein) in serum are also determined.

[6] = test system: Caco-2 colon adenocarcinoma cells; assay: MTS cell viability assay, Caco-2
Method: In vitro inhibitory efficacy is measured using 3-(4,5-dimethylthiazol-2-yl)-5-(3-carboxymethoxyphenyl)-2-(4-sulfophenyl)-2H-tetrazolium (MTS) assay (Promega, Madison, Wis.). […] Cells are treated with either vehicle control, PBS, PBIT (40-120 μM) or PBISe (2.4-10 μM) for 72 h. The percentages of viable cells compared to control PBS treated cells are determined using MTS assay and IC50 values calculated using GraphPad Prism version 4.01 (GraphPad software, San Diego, Calif.). An IC50 value for each compound is determined by at least three independent experiments and represented with a standard error.
The IC50 value is evaluated by treating with increasing concentrations of PBIT, PEIT, PEISe (10-100 μM) or PBISe (1.6-50 μM) for 24-72 hours and the number of viable cell are quantified using MTS (Promega, Wis.).

[7] = test system: OVCAR-3 ovarian carcinoma cells; assay: MTS cell viability assay, OVCAR-3; assay type: cell-based, human
Method: as §1

1205 Lu melanoma tumors = assay: Tumorigenicity assessment, 1205 Lu xenograft, i.p. treatment; assay type: in vivo, nude mice; conditions: day 24; i.p. 0.315 μmoles (2.5 ppm selenium) Monday, Wednesday, Friday for 3 weeks
Method: Tumor kinetics are measured by subcutaneous injection of 5×10^6 UACC 903 or 2.5×10^61205 Lu cells in 0.2 ml of DMEM containing 10% FBS above left and right rib cages of 4-6 week old female nude mice (Harlan Sprague Dawley, Indianapolis, Ind.). Six days later, a fully vascularized tumor has developed and mice are randomly placed in control DMSO or experimental (PBIT or PBISe) groups (n=5 animals; 10 tumors total) followed by i.p. treatment with PBIT ([…]) or PBISe ([…]; equivalent to 2.5 ppm selenium per 20 g mouse) on Monday, Wednesday and Friday for 3 weeks. Dimensions of developing tumors and body weight are measured.

[8] = test system: PI3 kinase/Akt3 and MAP kinase signaling in UACC 903 cells; assay: Western blot analysis of melanoma cell lysates; assay type: cell-based
Method: Melanoma cell line UACC 903 cells (1×10^6) are treated with increasing concentrations (7-21 μM) of PBIT and PBISe for 24 hours and cell lysates examined by Western blot analysis Cell lysates are harvested by addition of lysis buffer containing 50 mM HEPES (pH 7.5), 150 mM NaCl, 10 mM EDTA, 10% glycerol, 1% Triton X-100, 1 mM sodium orthovanadate, 0.1 mM sodium molybdate, 1 mM phenylmethylsulfonyl fluoride, 20 μg/ml aprotinin, and 5 μg/ml leupeptin. Whole cell lysates are centrifuged (≧10,000×g) for 10 minutes at 4° C. to remove cell debris. Protein concentrations are quantitated using the BCA assay (Pierce, Rockford, Ill.), and 30 μg of lysate loaded per lane onto NuPAGE Gels (Life Technologies, Carlsbad, Calif.). Following electrophoresis, samples are transferred to polyvinylidene difluoride membrane (Pall Corporation, Pensacola, Fla.). Blots are probed with antibodies to PRAS40 and phosphorylated PRAS40 (Thr246) (Invitrogen, Carlsbad, Calif.); antibodies to iNOS, cyclin D1, p27, p21, Erk2, α-enolase and secondary antibodies conjugated with horseradish peroxidase from Santa Cruz Biotechnology (Santa Cruz, Calif.); and antibodies to Akt3, phosphorylated-Akt (Ser473), phosphorylated-Erk 1/2 (Thr202/Tyr204), caspase-3 and cleaved PARP from Cell Signaling Technology (Danvers, Mass.). Immunoblots are developed using ECL (Pierce, Rockford, Ill.).

UACC 903 melanoma cells = assay: Cellular proliferation, BrdU ELISA; assay type: cell-based; conditions: 2 μM, 24 hours
Method: Cellular proliferation and apoptosis rates are measured by seeding 5×10^3 cells in 96-well plates, followed by treatment for 24 hours with PBISe or PBIT (0.5-10.5 μM). Proliferation and apoptosis rates are measured using a BrdU ELISA kit (Roche Applied Sciences, Indianapolis, Ind.) and Apo-ONE Homogenous caspase-3/7 Assay kit (Promega, Madison, Wis.), respectively, (Madhunapantula S V, et al., Cancer Res 2007; 67:3626-36).

[9] = UACC 903, 7-21 μM, 24 hours, compared to PBIT

SMILES: N=C(N)[Se]CCc1ccc(CC[Se]C(=N)N)cc1 [PBISe, s,s′-1,4-phenylene-bis(1,2-ethanediyl)bis-isoselenourea dihydrobromide]
- IC50 [1]: 9.8 ± 0.7 µM
- IC50 ([2]; Homo sapiens, MDA-MB-231, 24 h, read-out: Inhibition Cancer Cells IC50, MDA-MB-231 (Table III)): 6 ± 0.54 µM
- Fold increase in efficacy (PBIT/PBISe), MDA-MB-231 ([2]; ratio of IC50 PBIT/PBISe, MDA-MB-231): >16.7 fold
- fold higher concentrations required to kill fibroblasts compared to melanoma cells [3]: 2-5 fold
- IC50 [4]: 4.72 ± 0.44 µM
- serum enzyme and metabolite levels, topical application ([5]; day 29, SGOT, SGPT, alkaline phosphatase, glucose, creatinine, urea nitrogen, total protein): no significant differences
- body weight, topical application ([5]; topical every day, 29 days): no detectable differences
- increase in potency compared to PBIT ([6]; Caco-2, 72 h, MTS): 25 fold
- cells killed ([6]; Caco-2, PBISe at 2-4 μM): > 80%
- Fold increase in efficacy (PBIT/PBISe), Caco-2 ([6]; ratio of IC50 PBIT/PBISe, Caco-2): ~24.7 fold
- IC50 ([6]; read-out: IC50, Caco-2 colon adenocarcinoma cells, Caco-2, 72 h, MTS): 2.4 µM
- IC50 ([6]; read-out: Inhibition Cancer Cells IC50, Caco-2 (Table III), Caco-2 colorectal adenocarcinoma, MTS): 2.4 ± 0.43 µM
- IC50 ([6]; read-out: Inhibition of growth IC50, Caco-2 (Table II), Caco-2, 24-72 hours, MTS): 2.4 ± 0.43 µM
- IC50 ([7]; Homo sapiens, OVCAR-3, 24 h, read-out: Inhibition Cancer Cells IC50, OVCAR-3 (Table III)): 5.3 ± 0.65 µM
- Fold increase in efficacy (PBIT/PBISe), OVCAR-3 ([7]; ratio of IC50 PBIT/PBISe, OVCAR-3): >18.9 fold
- difference in tumor volume compared to control DMSO or PBIT, 1205 Lu (1205 Lu melanoma tumors): ~50%
- cleaved caspase-3 and PARP ([8]; UACC 903, 7-21 μM, 24 hours): increases
- phosphorylation of downstream Akt3 substrate PRAS40 ([8]; UACC 903, 7-21 μM, 24 hours): inhibited
- Akt phosphorylation [8, 9]: inhibits
- total Akt protein levels [8, 9]: decreases
- cyclin D1 levels ([8]; melanoma cells, FIG. 4C): reduces
- p27 as well as p21 levels ([8]; three cell lines, FIG. 4C): increases
- reduction of cellular proliferative capacity compared to PBS vehicle or PBIT treated cells (UACC 903 melanoma cells): ~90%
